According to patent US6339045B1, “N-(unsubstituted or substituted)-4-substituted-6-(unsubstituted or substituted)phenoxy-2-pyridinecarboxamides or thiocarboxamides, processes for producing the same, and herbicides” (Kureha Kagaku Kogyo Kabushiki Kaisha, priority 1995, dated 2002):

How the values were obtained:
Assay in all cases: Herbicidal effect by foliage and soil treatment
Assay type in all cases: in vivo
Conditions in all cases: 10 g ai/10a, evaluated after 14 days
[1] = test system: velvetleaf (Abutilon theophrasti)
Procedure, shortened: (§1)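 Greenhouse pot test at 19–25 °C: spray of aqueous Tween 20 formulation onto foliage and soil of seedlings at cotyledonal–bifoliate stage, dose per area predetermined. Scoring on a rating scale after 14 days versus untreated.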

[2] = test system: cleavers (Galium aparine)
Procedure, shortened: as §1

[3] = test system: ivyleafspeedwell (Veronica hederaefolia)
Procedure, shortened: as §1

[4] = test system: sicklepod (Cassia obtusifolia)
Procedure, shortened: as §1

[5] = test system: wild chamomile (Matricaria chamomilla)
Procedure, shortened: as §1

[6] = test system: kediock (Sinapis arvensis)
Procedure, shortened: as §1

[7] = test system: redroot pigweed (Amaranthus retroflexus)
Procedure, shortened: as §1

[8] = test system: common chickweed (Stellaria media)
Procedure, shortened: as §1

[9] = test system: common blackjack (Bidens pilosa)
Procedure, shortened: as §1

[10] = test system: field bindweed (Convolvulus arvensis)
Procedure, shortened: as §1

[11] = test system: black nightshade (Solanum nigrum)
Procedure, shortened: as §1

Compound | herbicidal activity rating, AT (Abutilon theophrasti) [1] | herbicidal activity rating, GA (Galium aparine) [2] | herbicidal activity rating, VH (Veronica hederaefolia) [3] | herbicidal activity rating, CO (Cassia obtusifolia) [4] | herbicidal activity rating, MC (Matricaria chamomilla) [5] | herbicidal activity rating, SA (Sinapis arvensis) [6] | herbicidal activity rating, AR (Amaranthus retroflexus) [7] | herbicidal activity rating, SM (Stellaria media) [8] | herbicidal activity rating, BP (Bidens pilosa) [9] | herbicidal activity rating, CA (Convolvulus arvensis) [10] | herbicidal activity rating, SN (Solanum nigrum) [11]
CNC(=O)c1cc(OC)cc(Oc2cccc(C(F)(F)F)c2)n1 [Compound I-46] | 4 (percentage of weeds killed was not less than 60% and less than 80%) | 5 (percentage of weeds killed was not less than 80%) | 5 (percentage of weeds killed was not less than 80%) | 5 (percentage of weeds killed was not less than 80%) | 3 (percentage of weeds killed was not less than 40% and less than 60%) | 5 (percentage of weeds killed was not less than 80%) | 5 (percentage of weeds killed was not less than 80%) | 5 (percentage of weeds killed was not less than 80%) | 3 (percentage of weeds killed was not less than 40% and less than 60%) | 5 (percentage of weeds killed was not less than 80%) | 5 (percentage of weeds killed was not less than 80%)
CNC(=S)c1cc(OC)cc(Oc2cccc(C(F)(F)F)c2)n1 [Compound I-47] | 5 (percentage of weeds killed was not less than 80%) | 5 (percentage of weeds killed was not less than 80%) | 5 (percentage of weeds killed was not less than 80%) | 5 (percentage of weeds killed was not less than 80%) | 3 (percentage of weeds killed was not less than 40% and less than 60%) | 5 (percentage of weeds killed was not less than 80%) | 5 (percentage of weeds killed was not less than 80%) | 4 (percentage of weeds killed was not less than 60% and less than 80%) | 3 (percentage of weeds killed was not less than 40% and less than 60%) | 5 (percentage of weeds killed was not less than 80%) | 5 (percentage of weeds killed was not less than 80%)
COc1cc(Oc2cccc(C(F)(F)F)c2)nc(C(=O)NC2CC2)c1 [Compound I-48, N-cyclopropyl-4-methoxy-6-{3-(trifluoromethyl)phenoxy}-2-pyridine carboxamide] | 5 (percentage of weeds killed was not less than 80%) | 5 (percentage of weeds killed was not less than 80%) | 5 (percentage of weeds killed was not less than 80%) | 5 (percentage of weeds killed was not less than 80%) | 5 (percentage of weeds killed was not less than 80%) | 5 (percentage of weeds killed was not less than 80%) | 5 (percentage of weeds killed was not less than 80%) | 5 (percentage of weeds killed was not less than 80%) | 4 (percentage of weeds killed was not less than 60% and less than 80%) | 5 (percentage of weeds killed was not less than 80%) | 5 (percentage of weeds killed was not less than 80%)
COc1cc(Oc2cccc(C(F)(F)F)c2)nc(C(=O)NC2CCC2)c1 [Compound I-49] | 5 (percentage of weeds killed was not less than 80%) | 5 (percentage of weeds killed was not less than 80%) | 5 (percentage of weeds killed was not less than 80%) | 5 (percentage of weeds killed was not less than 80%) | 5 (percentage of weeds killed was not less than 80%) | 5 (percentage of weeds killed was not less than 80%) | 5 (percentage of weeds killed was not less than 80%) | 5 (percentage of weeds killed was not less than 80%) | 5 (percentage of weeds killed was not less than 80%) | 5 (percentage of weeds killed was not less than 80%) | 5 (percentage of weeds killed was not less than 80%)
COc1cc(Oc2cccc(C(F)(F)F)c2)nc(C(=O)NC2CCCC2)c1 [Compound I-50] | 4 (percentage of weeds killed was not less than 60% and less than 80%) | 5 (percentage of weeds killed was not less than 80%) | 5 (percentage of weeds killed was not less than 80%) | 4 (percentage of weeds killed was not less than 60% and less than 80%) | 5 (percentage of weeds killed was not less than 80%) | 5 (percentage of weeds killed was not less than 80%) | 5 (percentage of weeds killed was not less than 80%) | 5 (percentage of weeds killed was not less than 80%) | 5 (percentage of weeds killed was not less than 80%) | 5 (percentage of weeds killed was not less than 80%) | 5 (percentage of weeds killed was not less than 80%)
CCNC(=O)c1cc(OC)cc(Oc2cccc(C(F)(F)F)c2)n1 [Compound I-51] | 5 (percentage of weeds killed was not less than 80%) | 5 (percentage of weeds killed was not less than 80%) | 5 (percentage of weeds killed was not less than 80%) | 5 (percentage of weeds killed was not less than 80%) | 4 (percentage of weeds killed was not less than 60% and less than 80%) | 5 (percentage of weeds killed was not less than 80%) | 5 (percentage of weeds killed was not less than 80%) | 5 (percentage of weeds killed was not less than 80%) | 3 (percentage of weeds killed was not less than 40% and less than 60%) | 4 (percentage of weeds killed was not less than 60% and less than 80%) | 5 (percentage of weeds killed was not less than 80%)
